Source: patent US20250074890A1, “CYANOPYRIDINE AND CYANOPYRIMIDINE BCL6 DEGRADERS” (DANA-FARBER CANCER INSTITUTE, INC., priority 2021, published 2025)

Molecular target: T1, BCL6 (Homo sapiens, UniProt P41182)
T1 construct: Endogenous BCL6 was tagged with the 11-amino acid SmBiT through CRISPR/Cas9 gene editing; endogenous in cells; host or cells: Su-DHL-4 (CRISPR/Cas9 knock-in, single cell clone)
Assay: HiBiT cellular degradation assay in Su-DHL-4 cells
Type: cell-based
Settings: concentration to reach 50% degradation of endogenous SmBiT-tagged BCL6, 24 hours of compound treatment
Experimental: DC50 (concentration to reach 50% degradation) values were determined from a cellular degradation assay (HiBiT, Promega™) in Su-DHL-4 cells (Table 1). Endogenous BCL6 was tagged with the 11-amino acid SmBiT through CRISPR/Cas9 gene editing and single cell clone selection. After 24 hours of compound treatment, cells were lysed and incubated with LgBiT protein to reconstitute intact nanoluciferase. Substrate was then added and relative luciferase units were measured. Degradation levels for each treatment were taken as a percentage compared to the control, 100% DMSO (Prism).

**Q.** Which DC50 does the source give for C[C@H](O)CCn1c(=O)n(C)c2ccc(Nc3nc(N4C[C@@H](C)[C@@H](F)[C@@H](C)C4)c(C#N)cc3F)cc21 [Compound 54, 5-Fluoro-2-((3S,4R,5R)-4-fluoro-3,5-dimethylpiperidin-1-yl)-6-((3-((S)-3-hydroxybutyl)-1-methyl-2-oxo-2,3-dihydro-1H-benzo[d]imidazol-5-yl)amino)nicotinonitrile] here?
**A.** 38 nM

**Q.** For C[C@@H]1CN(c2nc(Nc3ccc4c(c3)n(C[C@@H]3CNC(=O)O3)c(=O)n4C)c(F)cc2C#N)C[C@H](C)[C@@H]1F [Compound 87, 5-Fluoro-2-[(3S,4S,5R)-4-fluoro-3,5-dimethyl-1-piperidyl]-6-[[1-methyl-2-oxo-3-[[(5S)-2-oxooxazolidin-5-yl]methyl]benzimidazol-5-yl]amino]pyridine-3-carbonitrile], which DC50 is on record?
**A.** 101 nM

**Q.** CC(O)CCn1c(=O)n(C)c2ccc(Nc3nc(N4C[C@@H](CCO)[C@H](F)[C@@H](C)C4)c(C#N)cc3F)cc21 (stereo partly drawn) [Compound 56, 5-fluoro-2-[(3R,4R,5S)-4-fluoro-3-(2-hydroxyethyl)-5-methyl-1-piperidyl]-6-[[3-(3-hydroxybutyl)-1-methyl-2-oxo-benzimidazol-5-yl]amino]pyridine-3-carbonitrile] was tested. Which DC50 did it give?
**A.** > 400 nM

**Q.** With CNC(=O)COc1cc2cc(Nc3nc(N4C[C@@H](C)C[C@@H](N)C4)c(C#N)cc3Cl)ccc2n(C)c1=O [Compound 39, 2-((6-((6-((3R,5S)-3-Amino-5-methylpiperidin-1-yl)-3-chloro-5-cyanopyridin-2-yl)amino)-1-methyl-2-oxo-1,2-dihydroquinolin-3-yl)oxy)-N-methylacetamide] as the compound, how does the DC50 read?
**A.** 41 nM

**Q.** C[C@H]1CN(c2nc(Nc3ccc4c(c3)n(CCC(C)(C)O)c(=O)n4C)c(Cl)cc2C#N)C[C@@H](O)C1(F)F [Compound 75, 5-chloro-2-((3R,5S)-4,4-difluoro-3-hydroxy-5-methylpiperidin-1-yl)-6-((3-(3-hydroxy-3-methylbutyl)-1-methyl-2-oxo-2,3-dihydro-1H-benzo[d]imidazol-5-yl)amino)nicotinonitrile] was tested. Which DC50 did it give?
**A.** > 400 nM

**Q.** How did the DC50 turn out when CNC(=O)COc1cc2cc(Nc3nc(N4C[C@H](CCO)C(F)(F)[C@H](C)C4)c(C#N)cc3Cl)ccc2n(C)c1=O [Compound 63, 2-((6-((3-chloro-5-cyano-6-((3S,5R)-4,4-difluoro-3-(2-hydroxyethyl)-5-methylpiperidin-1-yl)pyridin-2-yl)amino)-1-methyl-2-oxo-1,2-dihydroquinolin-3-yl)oxy)-N-methylacetamide] was run?
**A.** 39 nM

**Q.** CNC(=O)COc1cc2cc(Nc3nc(N4C[C@@H](C)C(F)(F)[C@@H](C)C4)c(C#N)cc3Cl)ccc2n(C)c1=O [Compound 2, 2-((6-((3-Chloro-5-cyano-6-((3S,5R)-4,4-difluoro-3,5-dimethylpiperidin-1-yl)pyridin-2-yl)amino)-1-methyl-2-oxo-1,2-dihydroquinolin-3-yl)oxy)-N-methylacetamide] was tested. Which DC50 did it give?
**A.** 6 nM

**Q.** CNC(=O)COc1cc2cc(Nc3nc(N4C[C@@H](C)[C@@H](F)[C@@H](C)C4)c(C#N)cc3Cl)ccc2n(CCN)c1=O [Compound 66, 2-((1-(2-Aminoethyl)-6-((3-chloro-5-cyano-6-((3S,4S,5R)-4-fluoro-3,5-dimethylpiperidin-1-yl)pyridin-2-yl)amino)-2-oxo-1,2-dihydroquinolin-3-yl)oxy)-N-methylacetamide] was tested. Which DC50 did it give?
**A.** 6 nM

**Q.** CNC(=O)COc1cc2cc(Nc3nc(N4C[C@@H](C)C(F)(F)[C@@H](C)C4)c(C#N)cc3Cl)ccc2n(CC2CNC2)c1=O [Compound 65, 2-((1-(Azetidin-3-ylmethyl)-6-((3-chloro-5-cyano-6-((3R,5S)-4,4-difluoro-3,5-dimethylpiperidin-1-yl)pyridin-2-yl)amino)-2-oxo-1,2-dihydroquinolin-3-yl)oxy)-N-methylacetamide] was tested. Which DC50 did it give?
**A.** 56 nM

**Q.** For CNC(=O)COc1cc2cc(Nc3nc(N4C[C@@H](C)C(F)(F)[C@@H](N)C4)c(C#N)cc3Cl)ccc2n(CC2COC2)c1=O [Compound 41, 2-((6-((6-((3S,5R)-3-Amino-4,4-difluoro-5-methylpiperidin-1-yl)-3-chloro-5-cyanopyridin-2-yl)amino)-1-(oxetan-3-ylmethyl)-2-oxo-1,2-dihydroquinolin-3-yl)oxy)-N-methylacetamide], which DC50 is on record?
**A.** 10 nM

**Q.** With CNC(=O)COc1cc2cc(Nc3nc(N4C[C@@H](C)C[C@@H](C(=O)O)C4)c(C#N)cc3Cl)ccc2n(C)c1=O [Compound 78, (3R,5S)-1-(5-chloro-3-cyano-6-((1-methyl-3-(2-(methylamino)-2-oxoethoxy)-2-oxo-1,2-dihydroquinolin-6-yl)amino)pyridin-2-yl)-5-methylpiperidine-3-carboxylic acid] as the compound, how does the DC50 read?
**A.** > 400 nM

**Q.** CNC(=O)COc1cc2cc(Nc3nc(N4C[C@H](C)C[C@H](C(=O)O)C4)c(C#N)cc3Cl)ccc2n(C)c1=O [Compound 79, (3S,5R)-1-(5-chloro-3-cyano-6-((1-methyl-3-(2-(methylamino)-2-oxoethoxy)-2-oxo-1,2-dihydroquinolin-6-yl)amino)pyridin-2-yl)-5-methylpiperidine-3-carboxylic acid] was tested. Which DC50 did it give?
**A.** 12 nM

**Q.** For C[C@H](O)Cn1c(=O)n(CCC(C)(C)O)c2cc(Nc3nc(N4C[C@@H](N)C(F)(F)[C@@H](C)C4)c(C#N)cc3F)ccc21 [Compound 90, 2-((3R,5S)-3-Amino-4,4-difluoro-5-methylpiperidin-1-yl)-5-fluoro-6-((3-(3-hydroxy-3-methylbutyl)-1-((S)-2-hydroxypropyl)-2-oxo-2,3-dihydro-1H-benzo[d]imidazol-5-yl)amino)nicotinonitrile], which DC50 is on record?
**A.** 73 nM

**Q.** With CNC(=O)COc1cc2cc(Nc3nc(N4C[C@@H](C)C(F)(F)[C@@H](C)C4)c(C#N)cc3Cl)ccc2n(CC2CCO2)c1=O (stereo partly drawn) [Compound 6, 2-((6-((3-Chloro-5-cyano-6-((3R,5S)-4,4-difluoro-3,5-dimethylpiperidin-1-yl)pyridin-2-yl)amino)-1-(oxetan-2-ylmethyl)-2-oxo-1,2-dihydroquinolin-3-yl)oxy)-N-methylacetamide] as the compound, how does the DC50 read?
**A.** 13 nM

**Q.** With CNC(=O)COc1cc2cc(Nc3nc(N4C[C@@H](C)[C@@H](F)[C@@H](C)C4)c(C#N)cc3Cl)ccc2n(C)c1=O [Compound 45, 2-((6-((3-Chloro-5-cyano-6-((3R,4S,5S)-4-fluoro-3,5-dimethylpiperidin-1-yl)pyridin-2-yl)amino)-1-methyl-2-oxo-1,2-dihydroquinolin-3-yl)oxy)-N-methylacetamide] as the compound, how does the DC50 read?
**A.** 3 nM

**Q.** Which DC50 does the source give for CNC(=O)COc1cc2cc(Nc3nc(N4C[C@@H](CCO)C(F)(F)[C@@H](C)C4)c(C#N)cc3Cl)ccc2n(C)c1=O [Compound 62, 2-((6-((3-chloro-5-cyano-6-((3R,5S)-4,4-difluoro-3-(2-hydroxyethyl)-5-methylpiperidin-1-yl)pyridin-2-yl)amino)-1-methyl-2-oxo-1,2-dihydroquinolin-3-yl)oxy)-N-methylacetamide] here?
**A.** 8 nM

**Q.** With C[C@H]1CN(c2nc(Nc3ccc4c(c3)n(CCC(C)(C)O)c(=O)n4C)c(Cl)cc2C#N)C[C@@H](O)[C@H]1F [Compound 51, 5-chloro-2-((3R,4S,5S)-4-fluoro-3-hydroxy-5-methylpiperidin-1-yl)-6-((3-(3-hydroxy-3-methylbutyl)-1-methyl-2-oxo-2,3-dihydro-1H-benzo[d]imidazol-5-yl)amino)nicotinonitrile] as the compound, how does the DC50 read?
**A.** > 400 nM

**Q.** Which DC50 does the source give for C[C@@H]1CN(c2nc(Nc3ccc4c(c3)n(CCC(C)(C)O)c(=O)n4CC3COC3)c(Cl)cc2C#N)C[C@H](N)C1(F)F [Compound 37, 2-((3S,5R)-3-Amino-4,4-difluoro-5-methylpiperidin-1-yl)-5-chloro-6-((3-(3-hydroxy-3-methylbutyl)-1-(oxetan-3-ylmethyl)-2-oxo-2,3-dihydro-1H-benzo[d]imidazol-5-yl)amino)nicotinonitrile] here?
**A.** 62 nM

**Q.** How did the DC50 turn out when CNC(=O)COc1cc2cc(Nc3nc(N4C[C@@H](C)[C@H](O)[C@@H](C)C4)c(C#N)cc3Cl)ccc2n(C)c1=O [Compound 47, 2-((6-((3-Chloro-5-cyano-6-((3R,4r,5S)-4-hydroxy-3,5-dimethylpiperidin-1-yl)pyridin-2-yl)amino)-1-methyl-2-oxo-1,2-dihydroquinolin-3-yl)oxy)-N-methylacetamide] was run?
**A.** 11 nM

**Q.** Which DC50 does the source give for CNC(=O)COc1cc2cc(Nc3nc(N4C[C@@H](C)[C@H](F)[C@@H](C)C4)c(C#N)cc3Cl)ccc2n(C)c1=O [Compound 64, 2-((6-((3-chloro-5-cyano-6-((3R,4r,5S)-4-fluoro-3,5-dimethylpiperidin-1-yl)pyridin-2-yl)amino)-1-methyl-2-oxo-1,2-dihydroquinolin-3-yl)oxy)-N-methylacetamide] here?
**A.** 7 nM

**Q.** How did the DC50 turn out when CNC(=O)COc1cc2cc(Nc3nc(N4C[C@@H](C)[C@@H](O)[C@@H](C)C4)c(C#N)cc3Cl)ccc2n(C)c1=O [Compound 46, 2-((6-((3-Chloro-5-cyano-6-((3R,4s,5S)-4-hydroxy-3,5-dimethylpiperidin-1-yl)pyridin-2-yl)amino)-1-methyl-2-oxo-1,2-dihydroquinolin-3-yl)oxy)-N-methylacetamide] was run?
**A.** 6 nM

**Q.** Which DC50 does the source give for C[C@@H]1CN(c2nc(Nc3ccc4c(c3)n(CCC(C)(C)O)c(=O)n4C)c(Cl)cc2C#N)C[C@H](O)C1(F)F [Compound 74, 5-chloro-2-((3S,5R)-4,4-difluoro-3-hydroxy-5-methylpiperidin-1-yl)-6-((3-(3-hydroxy-3-methylbutyl)-1-methyl-2-oxo-2,3-dihydro-1H-benzo[d]imidazol-5-yl)amino)nicotinonitrile] here?
**A.** 22 nM

**Q.** Which DC50 does the source give for CNC(=O)COc1cc2cc(Nc3nc(N4C[C@@H](C)C(F)(F)[C@@H](C)C4)c(C#N)cc3Cl)ccc2nc1OCC1COC1 [Compound 58, 2-((6-((3-chloro-5-cyano-6-((3R,5S)-4,4-difluoro-3,5-dimethylpiperidin-1-yl)pyridin-2-yl)amino)-2-(oxetan-3-ylmethoxy)quinolin-3-yl)oxy)-N-methylacetamide] here?
**A.** > 400 nM
